Laboratory results from US20220227859A1, “METHOD TO TREAT TYPE 2 INFLAMMATION OR MAST-CELL DEPENDENT DISEASE” (INSERM (INSTITUT NATIONAL DE LA SANTÉ ET DE LA RECHERCHE …, priority 2019, published 2022).

Legend:
[1] = test system: TRPV1+ nociceptors; conditions: mouse, in vivo
[2] = test system: skin MCs; test: In vivo two-photon microscopy of Pirt-GCaMP3 mice: degranulation of Av.SRho+ MCs; design: species or system mouse; conditions: for degranulation of Av.SRho+ MCs: mouse, in vivo
[3] = test system: TRPV1+ nociceptors; conditions: mouse, in vivo; remark: listed apart in the source
[4] = test system: DRG neurons; type: cell-based, mouse

Compound | expression of the stress marker K-6 [1] | filaggrin organization [1] | skin lesions development and tested pathological features [1] | time by which increase in GCaMP3 fluorescence preceded degranulation of cognate Av.SRho+ MCs ([2]; i.d. 1 μM, video recorded for 60 minutes) [min] | degranulation of Av.SRho+ MCs [2] | GCaMP3 fluorescence levels in skin neurons [3] | intracellular calcium levels in DRG neurons [4]
C=C(C)[C@]12C[C@@H](C)[C@@]34O[C@](Cc5ccccc5)(O[C@@H]1[C@@H]3C=C(COC(=O)Cc1ccc(O)c(OC)c1)C[C@]1(O)C(=O)C(C)=C[C@@H]41)O2 [RTX, resiniferatoxin] | decreased | restored | strong reduction |  |  |  | 
COc1cc(CNC(=O)CCCC/C=C/C(C)C)ccc1O [capsaicin] |  |  |  | 10 to 15 | most of Av.SRho^+ MCs exhibited a degranulated phenotype | strong increase | 
Staphylococcal enterotoxin B [SEB] |  |  |  |  | presence of adjacent degranulated Av.SRho^+ MCs | significant increase | weak
